The record followed here is ChEMBL document CHEMBL5532694, “PDE-stable 2'3'-cGAMP analogues, containing 5'-S-phosphorothioester linkage, as STING agonists” (RSC Med Chem, 2024).

What is called IC50 is the point on the concentration scale where inhibition reaches its midpoint. The low end stands for greater potency, the high end for weaker potency. By EC50 is commonly meant the concentration needed to bring the measured effect to its halfway point. A word on the ΔTm: it is the change in melting temperature against a reference sample.

For data set [1], the target named is T1, Stimulator of interferon genes protein (Homo sapiens, UniProt Q86WV6). The data set is described as follows: Displacement of 2'-Fluo-AHC-c-di-GMP from wildtype human STING expressed in Escherichia coli BL21 (DE3) incubated for 5 mins by fluorescence polarization assay. (In general: Polarisation of emitted light reports the rotation of a fluorescent probe.)

Data set [2] deals with T1, Stimulator of interferon genes protein. The data set is described as follows: Agonist activity at STING in human THP1-Dual KI-hSTING-R232 cells assessed as IRF activation incubated for 24 hrs by QUANTI-Luc reagent based luminescence assay. It counts as cell-based.
The target is the same in data set [3]. As to the kind of experiment: Agonist activity at STING in wildtype human THP1-Dual cells assessed as IRF activation incubated for 24 hrs by QUANTI-Luc reagent based luminescence assay. It counts as cell-based.
The nature of data set [4]: Stability of compound assessed as Poxin (unknown origin) mediated compound degradation at 300 uM and measured after 30 mins by HPLC analysis. The following applies: 0.5 h. In kind it is ADME.
Data set [5] is described as follows: Stability of compound at 95 degreeC incubated for 5 mins by HPLC analysis. In kind it is physicochemical.
The target in data set [6] is T2, Ectonucleotide pyrophosphatase/phosphodiesterase family member 1 (Homo sapiens, UniProt P22413).
T2 sequence (P22413 whole entry): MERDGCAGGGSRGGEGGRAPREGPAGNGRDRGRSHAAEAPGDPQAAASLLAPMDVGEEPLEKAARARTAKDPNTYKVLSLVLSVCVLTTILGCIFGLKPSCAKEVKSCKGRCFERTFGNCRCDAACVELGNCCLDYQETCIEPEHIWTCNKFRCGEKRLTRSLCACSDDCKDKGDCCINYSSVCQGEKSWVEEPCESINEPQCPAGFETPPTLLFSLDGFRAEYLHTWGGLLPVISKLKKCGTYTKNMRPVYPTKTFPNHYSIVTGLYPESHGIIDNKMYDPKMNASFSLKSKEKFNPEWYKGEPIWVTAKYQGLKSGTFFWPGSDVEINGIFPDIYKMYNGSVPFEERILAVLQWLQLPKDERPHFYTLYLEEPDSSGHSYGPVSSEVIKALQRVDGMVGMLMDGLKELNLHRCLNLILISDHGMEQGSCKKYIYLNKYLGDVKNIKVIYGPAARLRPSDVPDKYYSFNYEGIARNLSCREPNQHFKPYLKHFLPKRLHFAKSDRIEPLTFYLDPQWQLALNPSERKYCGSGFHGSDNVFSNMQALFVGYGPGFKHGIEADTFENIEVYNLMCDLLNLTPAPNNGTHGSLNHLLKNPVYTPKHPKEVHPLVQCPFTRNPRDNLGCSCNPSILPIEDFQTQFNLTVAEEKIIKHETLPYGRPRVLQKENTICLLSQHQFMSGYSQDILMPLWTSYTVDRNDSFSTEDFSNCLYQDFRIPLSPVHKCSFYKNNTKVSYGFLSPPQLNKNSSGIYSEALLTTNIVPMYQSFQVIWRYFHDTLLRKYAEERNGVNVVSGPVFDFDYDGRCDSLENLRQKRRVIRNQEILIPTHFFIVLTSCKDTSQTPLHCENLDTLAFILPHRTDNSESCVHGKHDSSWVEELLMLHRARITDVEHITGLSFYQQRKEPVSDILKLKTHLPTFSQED
The data set is described as follows: Stability of compound assessed as ENPP1 (unknown origin) mediated compound degradation at 300 uM measured upto 24 hrs by HPLC analysis. It counts as ADME.

Data set [7] can be described thus: Stability of compound assessed as Poxin (unknown origin) mediated compound degradation at 300 uM and measured after 24 hrs by HPLC analysis. It counts as ADME.
Data set [8] can be described thus: Stability of compound assessed as Poxin (unknown origin) mediated compound degradation at 300 uM and measured after 3 hrs by HPLC analysis. It counts as ADME.
For data set [9], the target named is T1, Stimulator of interferon genes protein.
Description: Binding affinity to wildtype human STING expressed in Escherichia coli BL21 (DE3) assessed as thermal stability by measuring increase in melting temperature by differential scanning fluorimetry analysis

The structures appear in SMILES notation.

T1 sequence (Q86WV6 whole entry): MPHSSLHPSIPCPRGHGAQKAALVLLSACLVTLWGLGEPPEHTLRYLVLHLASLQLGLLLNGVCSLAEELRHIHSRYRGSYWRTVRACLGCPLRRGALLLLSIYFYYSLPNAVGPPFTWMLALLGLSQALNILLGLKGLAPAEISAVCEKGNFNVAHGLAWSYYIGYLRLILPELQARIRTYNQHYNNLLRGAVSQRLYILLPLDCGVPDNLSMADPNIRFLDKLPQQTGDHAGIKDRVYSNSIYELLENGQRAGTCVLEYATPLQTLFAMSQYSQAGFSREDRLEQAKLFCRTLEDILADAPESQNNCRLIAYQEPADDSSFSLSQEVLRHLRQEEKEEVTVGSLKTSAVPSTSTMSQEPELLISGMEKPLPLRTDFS

`Nc1nc2c(ncn2[C@@H]2O[C@@H]3COP(=O)(O)O[C@H]4C[C@H](n5cnc6c(N)ncnc65)O[C@@H]4CSP(=O)(O)O[C@@H]2[C@@H]3O)c(=O)[nH]1` yielded an IC50 in [1] of 7.87 µM. The EC50 is 16.4 µM in [2] and 37 µM in data set [3].
As for `Nc1nc2c(ncn2[C@@H]2O[C@@H]3COP(=O)(O)O[C@H]4[C@@H](O)[C@H](n5cnc6c(N)ncnc65)O[C@@H]4COP(=O)(O)O[C@@H]2[C@@H]3O)c(=O)[nH]1`, the Stability result in data set [4] is given as “Unstable”; in [5], “Stable”; in data set [6], “Unstable”.
For `CCN(CC)CC.CCN(CC)CC.Nc1nc2c(ncn2[C@@H]2O[C@@H]3COP(=O)(O)O[C@H]4[C@@H](F)[C@H](n5cnc6c(N)ncnc65)O[C@@H]4CSP(=O)(O)O[C@@H]2[C@@H]3O)c(=O)[nH]1`, the Stability entry in data set [7], in data set [5] and in data set [6] was “Stable” each time.
On to `CCN(CC)CC.CCN(CC)CC.Nc1nc2c(ncn2[C@@H]2O[C@@H]3COP(=O)(O)O[C@H]4[C@@H](O)[C@H](n5cnc6c(N)ncnc65)O[C@@H]4CSP(=O)(O)O[C@@H]2[C@@H]3O)c(=O)[nH]1`, for which, in data set [1], the IC50 stood at 18.6 µM. Moreover, the values for the Stability entry in data set [8], in data set [5] and in data set [6] were “Unstable”, “Stable” and “Stable”, respectively. The ΔTm in [9] turned out to be 8.2 °C. Also, the EC50 in data set [2] amounted to 27.4 µM; in data set [3], 27.2 µM.
